Assay results published in article PMC4512654 (Analytical biochemistry, 2014).

Experiments:
[1] = target: T1, Activated Factor XIII (FXIIIa) (Homo sapiens, UniProt P00488); assay type: biochemical
T1 sequence (P00488 39-732 limits assumed): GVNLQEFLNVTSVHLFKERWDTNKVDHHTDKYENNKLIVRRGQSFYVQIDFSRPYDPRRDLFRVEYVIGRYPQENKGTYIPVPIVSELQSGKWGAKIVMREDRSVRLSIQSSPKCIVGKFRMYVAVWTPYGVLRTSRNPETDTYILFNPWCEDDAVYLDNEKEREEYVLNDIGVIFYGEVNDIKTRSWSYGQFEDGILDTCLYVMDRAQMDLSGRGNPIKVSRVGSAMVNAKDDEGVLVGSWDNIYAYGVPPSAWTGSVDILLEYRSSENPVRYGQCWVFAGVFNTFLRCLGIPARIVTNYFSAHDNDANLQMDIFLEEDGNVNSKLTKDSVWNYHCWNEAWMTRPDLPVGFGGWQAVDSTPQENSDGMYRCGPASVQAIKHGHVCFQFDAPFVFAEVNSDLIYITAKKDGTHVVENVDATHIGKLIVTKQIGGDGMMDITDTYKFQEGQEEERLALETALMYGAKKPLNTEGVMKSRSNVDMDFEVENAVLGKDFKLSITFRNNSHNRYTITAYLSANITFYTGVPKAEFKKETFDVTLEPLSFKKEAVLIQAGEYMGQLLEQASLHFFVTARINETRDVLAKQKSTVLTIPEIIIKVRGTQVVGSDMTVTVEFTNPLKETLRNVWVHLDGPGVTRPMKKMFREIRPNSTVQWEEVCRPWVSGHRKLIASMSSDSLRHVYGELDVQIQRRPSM

FXIIIa = settings: coupled uv/vis assay, derived earlier; cited from earlier work

| Sequence | Km (FXIIIa) | further results |
| --- | --- | --- |
| FQSGQVLAALPRTSR [TAFI (1–15)] | – | Km weaker than α2AP (1–15) K12R and S. Aureus Fnb A (100–114) [1]: more than 5 fold |
| NQEQVSPLTLLKLGN [α2AP (1–15)] | 459 ± 50 µM | – |
| NQEKVSPLTLLKLGN [α2AP (1–15) Q4K] | 426 ± 93 µM | – |
| SGDQRQVDLIPKKAT [S. Aureus Fnb A (100–114)] | – | Km better than S. Aureus Fnb A (100–110) ([1]; P < 0.05): almost two-fold better |
